Reference: US7888464B2, “Hepatitis C virus inhibitors” (Bristol-Myers Squibb Company, priority 2006, dated 2011)

Columns and labels:
Assay type in all cases: biochemical
[1] = target: T1, human neutrophil elastase (HNE) (Homo sapiens, UniProt P08246); experiment: Specificity assay, neutrophil elastase; settings: read-out: HLE activity in the specificity assays
T1 construct: purchased Sigma, EMDbiosciences
T1 sequence (P08246 30-267): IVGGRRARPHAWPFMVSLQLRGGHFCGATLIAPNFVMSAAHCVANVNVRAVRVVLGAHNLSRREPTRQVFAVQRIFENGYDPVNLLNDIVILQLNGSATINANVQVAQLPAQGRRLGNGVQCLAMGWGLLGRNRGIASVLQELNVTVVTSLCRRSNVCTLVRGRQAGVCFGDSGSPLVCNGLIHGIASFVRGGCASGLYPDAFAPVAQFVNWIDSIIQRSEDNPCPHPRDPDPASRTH
Procedure: (§1) The specificities of compounds of the present disclosure were determined against a variety of serine proteases: human neutrophil elastase (HNE), porcine pancreatic elastase (PPE) and human pancreatic chymotrypsin and one cysteine protease: human liver cathepsin B. In all cases a 96-well plate format protocol using a fluorometric Amino-Methyl-Coumarin (AMC) substrate specific for each enzyme was used as described previously (PCT Patent Application No. WO 00/09543) with some modifications to the serine protease assays. All enzymes were purchased from Sigma, EMDbiosciences while the substrates were from Bachem, Sigma and EMDbiosciences.
(§2) Compound concentrations varied from 100 to 0.4 μM depending on their potency. The enzyme assays were each initiated by addition of substrate to enzyme-inhibitor pre-incubated for 10 min at room temperature and hydrolysis to 15% conversion as measured on cytofluor.
50 mM Tris-HCl, pH 8.0, 50 mM NaCl, 0.1 mM EDTA, 3% DMSO, 0.02% Tween-20, 5 μM succ-AAPV-AMC and 20 nM HNE or 8 nM PPE;
(§3) The percentage of inhibition was calculated using the formula: [1−((UVinh−UVblank)/(UVctl−UVblank))]×100
(§4) A non-linear curve fit was applied to the inhibition-concentration data, and the 50% effective concentration (IC50) was calculated by the use of Excel XLfit software.

[2] = tested on: human pancreatic chymotrypsin; experiment: Specificity assay, chymotrypsin; settings: read-out: Chymotrypsin activity in the specificity assays
Procedure: as §1, §2
50 mM Tris(hydroxymethyl)aminomethane hydrochloride (Tris-HCl) pH 8, 0.5 M Sodium Sulfate (Na2SO4), 50 mM NaCl, 0.1 mM EDTA, 3% DMSO, 0.01% Tween-20 with 5 μM LLVY-AMC and 1 nM Chymotrypsin.
as §3, §4

[3] = target: T2, human liver cathepsin B (Homo sapiens, UniProt P07858); experiment: Specificity assay, cathepsin B; settings: read-out: Cathepsin B activity in the specificity assays
T2 construct: purchased Sigma, EMDbiosciences; host or cells: human liver
Procedure: as §1, §2
100 mM NaOAC (Sodium Acetate) pH 5.5, 3% DMSO, 1 mM TCEP (Tris(2-carboxyethyl)phosphine hydrochloride), 5 nM Cathepsin B (enzyme stock activated in buffer containing 20 mM TCEP before use), and 2 μM Z-FR-AMC diluted in H2O.
as §3, §4

C=C[C@@H]1C[C@]1(NC(=O)[C@@H]1C[C@@](O)(c2ccc(-c3ccccc3)cc2)CN1C(=O)[C@@H](NC(=O)OC(C)(C)C)C(C)(C)C)C(=O)NS(=O)(=O)C1CC1 [Compound 3]
IC50 [1]: 82 µM | IC50 [2]: 75 µM | IC50 [3]: > 100 µM
